These results are taken from patent US20240174625A1, “COMPOSITIONS AND METHODS FOR TREATING TAUOPATHIES” (The Regents of the University of California, priority 2021, published 2024).

What is called IC50 is the concentration needed to halve the response being measured. In general, EC50 refers to the concentration needed to bring the measured effect to its halfway point. Read a low EC50 as greater potency.

In one data set the test system is HEK293T cells. In words: Cell viability assay (CellTiter Glo). The data set is classed as cell-based, human. Conditions: for IC50: Homo sapiens, HEK-293T, log10 transformed, IC50 = concentration that suppresses 50% cell viability, HEK293T cells; for Therapeutic index: ratio of IC50 (cell viability) over EC50 (NPEPPS activity). Here is the method: HEK293T cells (AATC) were maintained in complete media and cell viability assay was conducted in a fresh-prepared minimal medium containing essential amino acids, vitamin, AlbuMax (Invitrogen 11021-029) in 1×HBS buffer. White 384-well assay plates (Greiner EK-30080) were coated with poly-L-ornithine (0.1 mg/ml) overnight and washed once with 1×PBS. 15 μl minimal medium was then added to each well. 250 nl of compounds dissolved in OmniSolve DMSO were pinned to each well via Biomek FX^P Liquid Handling Automation from compound source plates. Cells were harvested, resuspended in minimal medium, and seeded at 16,500 cells/15 μl/well in the 384-well assay plates. 24 hrs later, 25 μl/well CellTiter Glo reagent (Promega G7572) was added into each well, and luminescence (0.5 second integration time) was acquired following manufacture's protocol. Luminescence count normalized to DMSO control is used as a readout of cell viability.
(§1) To investigate the effects of JMM compounds that enhance NPEPPS activity and assess their cellular toxicity, 139 compounds in the JMM series (i.e., JMM001-JMM139) were tested in dose responses (20-step, 2-fold dilution) using NPEPPS activity and viability assays in HEK293T cells. 76 compounds harboring different modifications produce concentration-dependent enhancement on NPEPPS activity compared to DMSO control (FIG. 4). […] A therapeutic index (TI, a ratio of IC50 over EC50) is used to evaluate the relative safety profiles of the compounds. […] 16 JMM compounds show both improved potency and reduced toxicity (EC50<10 μM and TI>10, Table 1).
(Cellular ATP, detected with luciferase, serves as a proxy for viable cell number.)

For another data set, the target named is T1, NPEPPS (Homo sapiens, UniProt P55786).
T1 construct: endogenous in cells; host or cells: HEK293T
T1 sequence (P55786 whole entry): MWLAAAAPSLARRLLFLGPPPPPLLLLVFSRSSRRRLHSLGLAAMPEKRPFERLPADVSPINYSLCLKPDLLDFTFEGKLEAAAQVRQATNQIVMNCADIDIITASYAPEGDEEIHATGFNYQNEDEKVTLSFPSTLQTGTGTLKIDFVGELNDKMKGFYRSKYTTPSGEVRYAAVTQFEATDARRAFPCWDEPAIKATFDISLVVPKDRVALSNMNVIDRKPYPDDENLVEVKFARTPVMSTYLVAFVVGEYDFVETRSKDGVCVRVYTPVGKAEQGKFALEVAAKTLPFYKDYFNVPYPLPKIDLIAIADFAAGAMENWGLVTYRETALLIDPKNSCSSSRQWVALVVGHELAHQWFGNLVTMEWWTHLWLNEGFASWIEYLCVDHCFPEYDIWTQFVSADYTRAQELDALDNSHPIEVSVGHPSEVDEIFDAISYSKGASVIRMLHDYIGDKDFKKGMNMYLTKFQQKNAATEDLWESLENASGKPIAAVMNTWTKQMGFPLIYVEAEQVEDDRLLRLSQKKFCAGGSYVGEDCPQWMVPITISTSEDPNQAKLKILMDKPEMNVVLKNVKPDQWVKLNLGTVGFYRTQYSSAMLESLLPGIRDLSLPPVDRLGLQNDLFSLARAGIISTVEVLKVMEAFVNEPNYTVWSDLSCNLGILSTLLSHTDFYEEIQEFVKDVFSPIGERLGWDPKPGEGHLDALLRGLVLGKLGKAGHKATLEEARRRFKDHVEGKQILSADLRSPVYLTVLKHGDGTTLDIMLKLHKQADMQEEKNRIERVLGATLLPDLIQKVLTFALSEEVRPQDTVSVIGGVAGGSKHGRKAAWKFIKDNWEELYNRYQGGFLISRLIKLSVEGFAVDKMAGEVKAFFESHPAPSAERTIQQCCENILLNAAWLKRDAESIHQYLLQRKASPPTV
In words: Cell-based NPEPPS activity assay (Q-AMC fluorescence). Conditions: log10 transformed; EC50 = concentration that elevates 50% NPEPPS activity (150% of DMSO baseline); HEK293T cells. The method, then:
HEK293T cells (AATC) were maintained in a complete media containing DMEM (Gibco 11995-065) in the presence of 10% fetal bovine serum (FBS, Gibco 10082147), […] penicillin and 50 μg/ml streptomycin (Gibco 15140163) at 37° C. with 5% CO2. NPEPPS activity assay was conducted in a fresh-prepared minimal medium containing essential amino acids, vitamin, AlbuMax (Invitrogen 11021-029) in 1×HBS buffer. Black wall, clear bottom 384-well assay plates (Greiner EK-30092) were coated with poly-L-ornithine (0.1 mg/ml, Sigma P3655) overnight and washed once with 1×PBS. 15 μl minimal medium was then added to each well. 250 nL of compounds dissolved in OmniSolve methylsulfoxide (dimethyl sulfoxide, DMSO, Sigma MX1456P) were pinned to each well via Biomek FX^P Liquid Handling Automation (Beckman Coulter) from compound source plates, i.e., either pre-made compound libraries or JMM compounds (20-step, 2-fold dilution) dissolved in OmniSolve DMSO prepared via Biomek automation in 384-well clear V-bottom polypropylene microplates (ThermoScientific 50-823-639). Cells were harvested, resuspended in minimal medium, and seeded at 16,500 cells/15 μl/well in the 384-well assay plates. 24 hrs later, 30 μl 200 μM H-Gln-AMC hydrobromide salt (Q-AMC, Bachem #I-1175) in 1×HBS containing 0.1% DMSO was added into each well. The fluorescent signal at excitation/emission wavelengths of 360/460 nm was measured immediately upon Q-AMC addition and 3 hrs post-Q-AMC. The change in fluorescence is measured as a readout of NPEPPS activity.
To identify small molecules that either increase NPEPPS levels or NPEPPS activity, a cell-based NPEPPS activity assay amenable to high-throughput screening (HTS) by adapting a fluorescent peptidase activity assay^2 was developed. Since NPEPPS is one of the only aminopeptidases capable of cleaving glutamine-peptide bonds^3 and the major aminopeptidase responsible for degradation of poly-glutamine sequences in the brain^4, a fluorogenic compound, glutamine-7-amino-4-methylcoumarin (Q-AMC), was selected as a substrate to measure NPEPPS activity. The peptide bond of Q-AMC is hydrolyzed by NPEPPS to release glutamine and a fluorescent product, 7-amino-4-methylcoumarin (AMC), when Q-AMC is added directly to the cell culture media. This change in fluorescence is measured as a readout of aminopeptidase activity (FIG. 2A). Overexpression of NPEPPS in HEK293T cells results in a significant increase in fluorescence, whereas knock-down or chemical inhibition of NPEPPS decrease fluorescence change (FIG. 2B-D), validating that the changes in fluorescence observed in the Q-AMC-based assay directly correlate with changes in NPEPPS activity. A high-throughput (HTS) screen (201,845 compounds) was conducted at the UCLA MSSR core (FIG. 2E). Follow-up assays and chemical clustering identified three series of compounds with distinct chemical clusters (FIG. 2F).
as §1

Take `COC(=O)c1ccc(CNc2nsc3ccccc23)cc1` [JMM024]: in the data set with HEK293T cells, the IC50 was 437 µM and the Therapeutic index came out at 2.76. In addition, the EC50 on NPEPPS was 158 µM.
Take `COc1ccc(Nc2nsc3ccccc23)cc1OC` [JMM025]: in the data set on HEK293T cells, the half-inhibitory concentration (IC50) is 575 µM and the Therapeutic index amounted to 1.54. At NPEPPS, the EC50 is 372 µM.
Taken in the same sequence, the figures for `FC(F)(F)c1ccc(CNc2nsc3ccc(OCc4ccccc4)cc23)cc1` [JMM066] were 174 µM, 27.03 and 6.46 µM.
In the same order, the values of `CCN(Cc1ccc(C(F)(F)F)cc1)c1nsc2ccccc12` [JMM092] are 126 µM, 2.84 and 44.7 µM.
In the same order, the values of `Fc1ccc(NCc2ccc(C(F)(F)F)cc2)nc1` [JMM045] are 186 µM, 3.49 and 53.7 µM.
`FC(F)(F)c1ccc(CNc2ncccn2)cc1` [JMM049]: in the data set with HEK293T cells, inhibition was half-maximal at 162 µM (IC50) and the Therapeutic index is reported as 2.93. Moreover, it took 56.2 µM to reach a half-maximal effect at NPEPPS (EC50).
In the same order, the values of `CN(Cc1ccc(Cl)c(Cl)c1)c1nsc2ccc(OCc3ccccc3)cc12` [JMM093] are 20.4 µM, 4.06 and 5.01 µM.
As to `Fc1cccc2c(NC(c3ccccc3)c3ccccc3)nsc12` [JMM057], in the data set with HEK293T cells, the concentration for half-maximal inhibition (IC50) is 151 µM and the Therapeutic index turned out to be 4.85. The molecule further gave a half-maximal effective concentration (EC50) at NPEPPS of 31.6 µM.
For `N#Cc1ccc(CNc2nsc3ccccc23)cc1` [JMM044], in the data set with HEK293T cells, the IC50 was 417 µM and the Therapeutic index was found to be 6.68. At NPEPPS, this molecule gave an EC50 of 63.1 µM.
Taken in the same sequence, the figures for `c1ccc(COc2ccc3snc(NCc4ccc(OCc5cccs5)cc4)c3c2)cc1` [JMM132, 5-(Benzyloxy)-N-(4-(thiophen-2-ylmethoxy)benzyl)benzo[d]isothiazol-3-amine] were 12 µM, 2.36 and 5.13 µM.
Taken in the same sequence, the figures for `CN(Cc1ccc(OCc2ccccc2)cc1)c1nsc2cnccc12` [JMM078] were 49 µM, 21.66 and 2.29 µM.
Turning to `c1ccc(CNc2ccc(CNc3nsc4ccc(OCc5ccccc5)cc34)cc2)cc1` [JMM122, N-(4-(Benzylamino)benzyl)-5-(benzyloxy)benzo[d]isothiazol-3-amine], in the data set on HEK293T cells, the IC50 was 324 µM and the Therapeutic index came to 69.07. Besides, the midpoint of the response on NPEPPS, the EC50, lay at 4.68 µM.
In the same order, the values of `Fc1ccc(COc2ccc(CNc3nsc4ccc(OCc5ccccc5)cc34)cc2)cc1` [JMM117, 5-(Benzyloxy)-N-(4-((4-fluorobenzyl)oxy)benzyl)benzo[d]isothiazol-3-amine] are 110 µM, 1.88 and 57.5 µM.
Taken in the same sequence, the figures for `c1cc(CNc2nsc3ccccc23)c2cc[nH]c2c1` [JMM030] were 257 µM, 1.16 and 219 µM.
In the same order, the values of `CN(C)c1ccc(CNc2nsc3ccccc23)cc1` [JMM019] are 195 µM, 0.82 and 240 µM.
Turning to `CN(Cc1ccc(OCc2ccccc2)cc1)c1nsc2ccc(OCc3ccccc3)cc12` [JMM088], in the data set on HEK293T cells, the IC50 was 97.7 µM and the Therapeutic index is listed as 100.53. The same molecule showed an EC50 on NPEPPS of 0.977 µM.
For `N#Cc1cccc2c(NCc3ccc(C(F)(F)F)cc3)nsc12` [JMM070], in the data set on HEK293T cells, the IC50 was 2630 µM and the Therapeutic index is reported as 13.25. The same molecule had a concentration giving a half-maximal response (EC50) at NPEPPS of 200 µM.
In the same order, the values of `FC(F)(F)c1ccc(COc2ccc(CNc3nsc4ccc(OCc5ccccc5)cc34)cc2)cc1` [JMM121, 5-(Benzyloxy)-N-(4-((4-(trifluoromethyl)benzyl)oxy)benzyl)benzo[d]isothiazol-3-amine] are 295 µM, 18.30 and 15.8 µM.
On to `COc1ccc(CNc2nsc3ccc(OCc4ccccc4)cc23)cc1` [JMM099], for which, in the data set on HEK293T cells, half-maximal inhibition (IC50) was put at 34.7 µM and the Therapeutic index is on record as 0.74. This molecule showed a concentration giving a half-maximal response (EC50) at NPEPPS of 46.8 µM.
In the same order, the values of `FC(F)(F)Oc1ccccc1CNc1nsc2ccccc12` [JMM055] are 126 µM, 2.43 and 52.5 µM.
Take `Fc1ccc2snc(NCc3ccc(C(F)(F)F)cc3)c2c1` [JMM139, 5-Fluoro-N-(4-(trifluoromethyl)benzyl)benzo[d]isothiazol-3-amine]: in the data set with HEK293T cells, the concentration for half-maximal inhibition (IC50) was 36.3 µM and the Therapeutic index is listed as 1.36. For the same molecule, the concentration giving a half-maximal response (EC50) at NPEPPS was 26.9 µM.
`Clc1ccc(C(Nc2nsc3ccccc23)c2ccc(Cl)cc2)cc1` [JMM076]: in the data set on HEK293T cells, the IC50 was 20 µM and the Therapeutic index was 2.03. The same molecule showed a 50% effective concentration (EC50) on NPEPPS of 9.77 µM.
On to `c1ccc(COc2ccc3snc(NCc4ccc(Oc5ccccc5)cc4)c3c2)cc1` [JMM115, 5-(Benzyloxy)-N-(4-phenoxybenzyl)benzo[d]isothiazol-3-amine], for which, in the data set with HEK293T cells, the 50% inhibitory concentration (IC50) is 263 µM and the Therapeutic index is on record as 5.83. Also, the 50% effective concentration (EC50) at NPEPPS was 44.7 µM.
Consider `C[C@H](Nc1nsc2ccccc12)c1cccc2ccccc12` [JMM101], for which, in the data set on HEK293T cells, 407 µM corresponded to half-maximal inhibition (IC50) and the Therapeutic index is 5.74. In addition, it took 70.8 µM to reach a half-maximal effect at NPEPPS (EC50).
In the same order, the values of `COc1ccc(CN(C)c2nsc3ccc(OC)cc23)cc1` [JMM100] are 126 µM, 1.56 and 79.4 µM.
Taken in the same sequence, the figures for `Brc1ccc(CNc2nsc3ccccc23)cc1` [JMM016] were 47.9 µM, 0.38 and 126 µM.
In the same order, the values of `CN(Cc1cccc2ccccc12)c1nsc2ccccc12` [JMM110, N-Methyl-N-(naphthalen-1-ylmethyl)benzo[d]isothiazol-3-amine] are 229 µM, 5.40 and 42.7 µM.
On to `FC(F)(F)c1ccc(CN(Cc2ccccc2)c2nsc3ccccc23)cc1` [JMM072], for which, in the data set on HEK293T cells, inhibition was half-maximal at 155 µM (IC50) and the Therapeutic index is reported as 11.52. Also, at NPEPPS, the concentration for a half-maximal effect (EC50) is 13.5 µM.
Take `c1ccc(COc2ccc3snc(NCc4cccs4)c3c2)cc1` [JMM119, 5-(Benzyloxy)-N-(thiophen-2-ylmethyl)benzo[d]isothiazol-3-amine]: in the data set on HEK293T cells, the IC50 is 501 µM and the Therapeutic index is listed as 4.20. This molecule also gave an EC50 at NPEPPS of 120 µM.
In the same order, the values of `FC(F)(F)c1ccc(CN(CC2CC2)c2nsc3ccccc23)cc1` [JMM133, N-(Cyclopropylmethyl)-N-(4-(trifluoromethyl)benzyl)benzo[d]isothiazol-3-amine] are 20.9 µM, 3.78 and 5.5 µM.
